Activity calls are given as the source filed them.
Experiments:
[1] = target: Luciferin 4-monooxygenase (Photinus pyralis, UniProt P08659); assay: Counter Screen for Luciferase-based Assay Positives. [Related pubchem assays: 620, 618, 411 ]
[2] = system: HT-1080; assay: cytotoxicity in HT1080 fibrosarcoma cells, cell-based, fluorescence readout (AID 620); format: functional; details: Homo sapiens
[3] = target: T1, Microphthalmia-associated transcription factor (Homo sapiens, UniProt O75030); assay: TRPM1 promoter luciferase signal decrease, dose response, MITF inhibitor project, cell-based, SK-MEL-5, cherry-picked, set 3 (AID 493073); format: functional
T1 sequence (O75030 whole entry): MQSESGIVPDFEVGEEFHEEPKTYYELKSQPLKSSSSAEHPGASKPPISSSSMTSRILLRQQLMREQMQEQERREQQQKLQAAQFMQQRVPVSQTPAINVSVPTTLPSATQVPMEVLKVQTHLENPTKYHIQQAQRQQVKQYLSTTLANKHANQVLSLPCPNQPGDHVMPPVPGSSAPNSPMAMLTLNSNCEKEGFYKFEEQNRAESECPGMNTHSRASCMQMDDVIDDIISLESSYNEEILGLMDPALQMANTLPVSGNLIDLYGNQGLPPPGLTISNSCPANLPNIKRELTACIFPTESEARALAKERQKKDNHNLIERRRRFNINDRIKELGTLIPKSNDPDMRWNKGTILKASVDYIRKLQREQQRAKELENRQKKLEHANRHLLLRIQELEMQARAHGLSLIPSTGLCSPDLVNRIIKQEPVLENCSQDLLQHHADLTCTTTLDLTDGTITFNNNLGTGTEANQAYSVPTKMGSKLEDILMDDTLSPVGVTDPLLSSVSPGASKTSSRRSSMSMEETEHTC

[4] = target: Paired box protein Pax-8 (Homo sapiens, UniProt Q06710); assay: inhibitors of PAX8-driven TPO luciferase reporter, dose response, RMG-I cells, cherry-pick (AID 687027); format: functional, cell-based;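 also: luciferase reporter driven by Pax8 target thyroperoxidase promoter measured by SteadyGlo luminescence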
Sequence of Paired box protein Pax-8 (Q06710 whole entry): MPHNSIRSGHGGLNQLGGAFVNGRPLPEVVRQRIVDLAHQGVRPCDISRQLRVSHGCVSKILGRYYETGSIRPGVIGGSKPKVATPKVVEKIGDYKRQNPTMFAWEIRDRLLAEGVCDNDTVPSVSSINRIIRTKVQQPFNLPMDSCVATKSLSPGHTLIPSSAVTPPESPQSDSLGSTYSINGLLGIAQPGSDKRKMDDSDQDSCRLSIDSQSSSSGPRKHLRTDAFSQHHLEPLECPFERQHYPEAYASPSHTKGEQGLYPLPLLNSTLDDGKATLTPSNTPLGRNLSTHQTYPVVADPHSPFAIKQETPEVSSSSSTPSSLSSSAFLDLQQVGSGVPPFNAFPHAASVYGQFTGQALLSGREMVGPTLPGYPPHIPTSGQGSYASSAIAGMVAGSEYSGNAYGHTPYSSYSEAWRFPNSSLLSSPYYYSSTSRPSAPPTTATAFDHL

[5] = non-specific cell cytotoxicity, dose response, cytotoxicity control for PAX8 inhibitor project, plate reader, dry powder samples (AID 743021); format: functional, cell-based
[6] = insulin promoter down-regulators in MIN6 cells, imaging, high-content screening, mouse beta cells (AID 1628); format: functional
[7] = cytotoxicity in MIN6 insulinoma cells, dose response, cytotoxicity control, cell-based, mouse insulinoma (AID 2122); format: functional;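 also: confirmatory high-throughput counterscreen run to flag cytotoxic compounds; mouse MIN-6 beta cells carrying an insulin promoter eGFP reporter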
[8] = growth suppression of PTEN-null colon cells, dose response, cell-based, HCT116 PTEN knockout (AID 1047); format: functional;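 also: HCT116 colon tumor cells with PTEN knocked out; cells exposed to compound for 60 hours before readout; potency for loss of cell viability measured by luminescence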
[9] = growth suppression of beta-catenin-knockout colon cells, dose response, cell-based, HCT116, human colon tumor (AID 1045); format: functional;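 also: HCT116 colon tumor cells with beta catenin knocked out; cells exposed to compound for 60 hours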
[10] = THP-1 cell cytotoxicity, dose response, cytotoxicity control for non-replicating M. tuberculosis project (AID 489025); format: functional
[11] = HepG2 cell cytotoxicity, dose response, cytotoxicity control for non-replicating M. tuberculosis project (AID 489018); format: functional; details: Mycobacterium tuberculosis
[12] = Vero E6 cell cytotoxicity, dose response, cytotoxicity control for non-replicating M. tuberculosis project, secondary assay (AID 492998); format: functional, VeroE6; details: Vero C1008
[13] = cells; format: functional
[14] = system: Vero; assay: cells; format: functional; details: Chlorocebus sabaeus
[15] = target: Cytochrome P450 2C9 (Homo sapiens, UniProt P11712)
Sequence of Cytochrome P450 2C9 (P11712 whole entry): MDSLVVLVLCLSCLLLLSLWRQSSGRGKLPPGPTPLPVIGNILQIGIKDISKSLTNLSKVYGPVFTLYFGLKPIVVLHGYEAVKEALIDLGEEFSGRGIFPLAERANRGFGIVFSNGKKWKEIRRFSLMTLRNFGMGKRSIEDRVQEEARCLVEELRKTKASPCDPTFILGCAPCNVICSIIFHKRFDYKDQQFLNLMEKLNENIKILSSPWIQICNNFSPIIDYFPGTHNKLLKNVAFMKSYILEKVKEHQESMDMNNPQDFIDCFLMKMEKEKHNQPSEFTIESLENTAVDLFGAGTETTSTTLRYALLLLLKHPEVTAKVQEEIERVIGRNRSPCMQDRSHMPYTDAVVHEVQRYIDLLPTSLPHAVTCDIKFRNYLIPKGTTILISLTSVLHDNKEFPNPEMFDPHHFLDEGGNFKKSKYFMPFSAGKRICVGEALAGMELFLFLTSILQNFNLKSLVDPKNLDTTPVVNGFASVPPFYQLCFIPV

[16] = target: T2, Lysine-specific demethylase 4C (Homo sapiens, UniProt Q9H3R0); assay: GASC-1 (JMJD2C) histone demethylase inhibitors, dose response, biochemical, DELFIA europium, cherry-picked samples (AID 488835); format: functional
T2 sequence (Q9H3R0 whole entry): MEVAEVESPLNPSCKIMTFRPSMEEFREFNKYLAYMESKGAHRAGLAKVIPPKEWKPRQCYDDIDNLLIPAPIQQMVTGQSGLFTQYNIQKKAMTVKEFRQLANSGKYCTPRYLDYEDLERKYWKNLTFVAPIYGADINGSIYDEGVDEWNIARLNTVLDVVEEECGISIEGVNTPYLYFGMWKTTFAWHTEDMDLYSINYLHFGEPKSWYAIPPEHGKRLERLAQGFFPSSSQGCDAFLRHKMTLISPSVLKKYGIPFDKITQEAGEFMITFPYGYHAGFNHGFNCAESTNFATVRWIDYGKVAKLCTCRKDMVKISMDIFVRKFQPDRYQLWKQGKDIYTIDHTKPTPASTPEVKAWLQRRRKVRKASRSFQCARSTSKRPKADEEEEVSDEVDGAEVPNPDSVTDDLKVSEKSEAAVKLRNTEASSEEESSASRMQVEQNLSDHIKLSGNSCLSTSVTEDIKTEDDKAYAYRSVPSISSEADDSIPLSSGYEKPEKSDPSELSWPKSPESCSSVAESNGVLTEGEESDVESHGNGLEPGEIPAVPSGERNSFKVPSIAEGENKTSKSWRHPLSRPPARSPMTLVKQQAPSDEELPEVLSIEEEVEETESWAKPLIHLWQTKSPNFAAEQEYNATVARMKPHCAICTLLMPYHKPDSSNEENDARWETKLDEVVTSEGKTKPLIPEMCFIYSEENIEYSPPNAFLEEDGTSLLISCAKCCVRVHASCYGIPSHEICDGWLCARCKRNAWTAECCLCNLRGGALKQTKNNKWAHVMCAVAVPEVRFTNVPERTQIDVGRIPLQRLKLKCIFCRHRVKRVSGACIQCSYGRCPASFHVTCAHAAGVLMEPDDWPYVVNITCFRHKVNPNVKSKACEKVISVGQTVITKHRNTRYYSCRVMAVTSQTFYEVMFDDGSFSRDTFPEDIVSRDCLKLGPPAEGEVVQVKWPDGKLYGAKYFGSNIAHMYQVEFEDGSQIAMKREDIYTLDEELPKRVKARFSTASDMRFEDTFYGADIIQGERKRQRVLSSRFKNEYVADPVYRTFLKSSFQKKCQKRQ

[17] = cytotoxicity in HPDE-C7 cells, cell-based, fluorescence, HTS (AID 430); format: functional; details: Homo sapiens
[18] = inhibitors of intracellular T. cruzi replication, confirmation, NIH3T3 host cells, beta-gal luminescence (AID 2044); format: functional, cell-based;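 also: intracellular parasites grown in NIH/3T3 mouse fibroblasts as host cells; luminescent beta-galactosidase reporter signal from transgenic T. cruzi replicating inside host cells; inhibitors lower the luminescence signal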
[19] = cytotoxicity in KRAS-transformed pancreatic duct cells, primary screen, cell-based, fluorescence, HTS (AID 431); format: functional; details: Homo sapiens;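 also: cell line used: HPDE-C7K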
[20] = cytotoxicity toward NIH3T3 fibroblasts, dose response, counter-screen, cell-based, ATP luminescence, mouse fibroblasts (AID 2010); format: functional;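 also: cells exposed to compound for about 90 hours before reading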
[21] = target: T3, Replicative DNA helicase DnaB (Mycobacterium tuberculosis, UniProt P9WMR3); assay: DnaB intein splicing inhibitors, dose response, biochemical, cell-free fluorescence (AID 449749); format: functional
T3 sequence (P9WMR3 whole entry): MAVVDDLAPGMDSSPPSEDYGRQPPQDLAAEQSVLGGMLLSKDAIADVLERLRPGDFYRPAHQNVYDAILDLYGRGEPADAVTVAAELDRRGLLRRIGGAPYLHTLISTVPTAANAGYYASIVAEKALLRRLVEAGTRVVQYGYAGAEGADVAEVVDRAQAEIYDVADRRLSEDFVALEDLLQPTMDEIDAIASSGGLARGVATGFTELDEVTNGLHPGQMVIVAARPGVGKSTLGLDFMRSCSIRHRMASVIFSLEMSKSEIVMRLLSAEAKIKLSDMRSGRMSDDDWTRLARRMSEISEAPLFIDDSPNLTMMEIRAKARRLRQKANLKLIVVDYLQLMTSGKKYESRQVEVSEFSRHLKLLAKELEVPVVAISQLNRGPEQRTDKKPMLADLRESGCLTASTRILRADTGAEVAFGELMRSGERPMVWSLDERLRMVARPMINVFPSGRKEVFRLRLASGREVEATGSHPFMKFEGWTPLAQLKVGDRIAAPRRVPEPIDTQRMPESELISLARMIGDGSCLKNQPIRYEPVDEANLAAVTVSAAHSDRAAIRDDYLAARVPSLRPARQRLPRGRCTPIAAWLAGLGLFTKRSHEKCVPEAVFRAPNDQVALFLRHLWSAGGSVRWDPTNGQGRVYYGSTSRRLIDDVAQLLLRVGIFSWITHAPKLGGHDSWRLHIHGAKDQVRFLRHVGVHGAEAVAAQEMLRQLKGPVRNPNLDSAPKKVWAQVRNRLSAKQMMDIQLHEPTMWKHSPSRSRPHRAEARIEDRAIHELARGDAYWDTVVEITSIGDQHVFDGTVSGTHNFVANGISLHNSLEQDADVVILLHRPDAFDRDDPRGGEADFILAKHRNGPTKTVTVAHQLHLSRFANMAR

[22] = target: T4, Protein RecA (Mycobacterium tuberculosis, UniProt P9WHJ3); assay: Fluorescence Cell-Free Homogeneous Dose Retest to Identify Inhibitors of RecA-Intein Splicing Activity. [Related pubchem assays (depositor defined):AID2097, AID2223, AID489010, AID492950]; format: functional
T4 sequence (P9WHJ3 whole entry): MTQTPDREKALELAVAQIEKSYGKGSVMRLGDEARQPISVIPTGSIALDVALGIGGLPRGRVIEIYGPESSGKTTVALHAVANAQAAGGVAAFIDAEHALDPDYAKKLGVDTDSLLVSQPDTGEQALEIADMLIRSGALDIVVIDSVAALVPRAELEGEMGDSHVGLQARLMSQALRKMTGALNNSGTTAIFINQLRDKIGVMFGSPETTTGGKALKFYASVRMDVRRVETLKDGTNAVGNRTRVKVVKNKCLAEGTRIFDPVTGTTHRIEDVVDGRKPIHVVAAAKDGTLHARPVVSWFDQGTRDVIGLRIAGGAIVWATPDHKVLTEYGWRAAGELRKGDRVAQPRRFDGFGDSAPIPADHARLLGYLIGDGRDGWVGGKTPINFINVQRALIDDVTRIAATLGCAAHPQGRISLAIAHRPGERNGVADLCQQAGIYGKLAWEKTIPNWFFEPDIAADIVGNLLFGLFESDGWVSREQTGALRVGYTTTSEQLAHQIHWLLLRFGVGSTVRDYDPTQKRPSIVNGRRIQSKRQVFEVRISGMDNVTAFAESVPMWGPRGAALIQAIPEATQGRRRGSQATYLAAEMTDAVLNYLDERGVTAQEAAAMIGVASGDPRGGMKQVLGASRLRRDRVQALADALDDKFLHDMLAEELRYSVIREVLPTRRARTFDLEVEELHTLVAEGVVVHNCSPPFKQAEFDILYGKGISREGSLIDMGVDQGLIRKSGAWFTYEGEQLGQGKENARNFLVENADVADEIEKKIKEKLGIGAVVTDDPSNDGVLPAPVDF

[23] = target: Genome polyprotein (dengue virus type 2, UniProt P29990); assay: Dengue-2 NS5 methyltransferase inhibitors, primary screen, biochemical, confirmation dose response (AID 588689); format: functional
Sequence of Genome polyprotein (P29990 2492-3391 limits assumed): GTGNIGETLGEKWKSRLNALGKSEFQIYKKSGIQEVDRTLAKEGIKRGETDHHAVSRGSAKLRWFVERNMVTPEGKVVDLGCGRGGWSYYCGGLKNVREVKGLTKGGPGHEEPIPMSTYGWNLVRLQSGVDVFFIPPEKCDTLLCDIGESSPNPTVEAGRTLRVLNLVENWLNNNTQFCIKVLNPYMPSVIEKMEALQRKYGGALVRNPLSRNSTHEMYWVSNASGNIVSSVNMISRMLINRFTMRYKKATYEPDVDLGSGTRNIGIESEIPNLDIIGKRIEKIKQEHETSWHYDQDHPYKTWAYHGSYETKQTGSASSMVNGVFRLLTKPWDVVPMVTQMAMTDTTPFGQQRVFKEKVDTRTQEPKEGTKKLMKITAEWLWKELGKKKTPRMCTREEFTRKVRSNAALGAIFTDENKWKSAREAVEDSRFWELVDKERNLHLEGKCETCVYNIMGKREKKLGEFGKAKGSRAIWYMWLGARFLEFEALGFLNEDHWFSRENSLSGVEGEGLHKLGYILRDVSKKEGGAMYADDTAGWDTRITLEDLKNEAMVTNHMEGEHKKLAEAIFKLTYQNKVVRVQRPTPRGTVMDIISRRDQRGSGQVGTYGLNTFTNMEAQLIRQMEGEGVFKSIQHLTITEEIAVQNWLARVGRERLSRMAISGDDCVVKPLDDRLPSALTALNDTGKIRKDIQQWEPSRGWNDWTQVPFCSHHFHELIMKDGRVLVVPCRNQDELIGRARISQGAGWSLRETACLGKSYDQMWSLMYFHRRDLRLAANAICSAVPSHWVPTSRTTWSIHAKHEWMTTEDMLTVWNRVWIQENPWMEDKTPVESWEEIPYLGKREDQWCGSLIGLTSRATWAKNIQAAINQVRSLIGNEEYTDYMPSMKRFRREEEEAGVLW

[24] = target: Intestinal-type alkaline phosphatase (Mus musculus, UniProt P24822); assay: PubChem AID 488785; format: functional
Sequence of Intestinal-type alkaline phosphatase (Mus musculus, UniProt P24822) (P24822 whole entry): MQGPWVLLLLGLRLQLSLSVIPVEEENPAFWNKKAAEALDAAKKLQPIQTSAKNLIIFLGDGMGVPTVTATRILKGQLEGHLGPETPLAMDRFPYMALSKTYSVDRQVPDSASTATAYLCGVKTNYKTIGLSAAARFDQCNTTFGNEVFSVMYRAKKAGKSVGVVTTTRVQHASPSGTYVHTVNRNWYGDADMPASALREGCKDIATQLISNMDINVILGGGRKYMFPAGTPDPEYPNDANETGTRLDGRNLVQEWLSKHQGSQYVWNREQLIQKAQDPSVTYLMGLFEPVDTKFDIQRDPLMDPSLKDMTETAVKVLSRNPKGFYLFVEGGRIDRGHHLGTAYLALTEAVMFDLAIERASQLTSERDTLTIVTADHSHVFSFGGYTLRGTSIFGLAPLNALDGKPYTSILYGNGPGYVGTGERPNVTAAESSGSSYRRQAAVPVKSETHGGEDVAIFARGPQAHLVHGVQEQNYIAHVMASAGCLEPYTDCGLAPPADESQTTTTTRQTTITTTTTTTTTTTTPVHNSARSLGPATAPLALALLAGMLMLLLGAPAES

[25] = target: T5, Alkaline phosphatase, tissue-nonspecific isozyme (Homo sapiens, UniProt P05186); assay: TNAP enzyme inhibition by screening hits, dose response, selectivity assay for mouse IAP inhibitor project, biochemical, human TNAP, uHTS hits (AID 488906); format: functional
T5 sequence (P05186 whole entry): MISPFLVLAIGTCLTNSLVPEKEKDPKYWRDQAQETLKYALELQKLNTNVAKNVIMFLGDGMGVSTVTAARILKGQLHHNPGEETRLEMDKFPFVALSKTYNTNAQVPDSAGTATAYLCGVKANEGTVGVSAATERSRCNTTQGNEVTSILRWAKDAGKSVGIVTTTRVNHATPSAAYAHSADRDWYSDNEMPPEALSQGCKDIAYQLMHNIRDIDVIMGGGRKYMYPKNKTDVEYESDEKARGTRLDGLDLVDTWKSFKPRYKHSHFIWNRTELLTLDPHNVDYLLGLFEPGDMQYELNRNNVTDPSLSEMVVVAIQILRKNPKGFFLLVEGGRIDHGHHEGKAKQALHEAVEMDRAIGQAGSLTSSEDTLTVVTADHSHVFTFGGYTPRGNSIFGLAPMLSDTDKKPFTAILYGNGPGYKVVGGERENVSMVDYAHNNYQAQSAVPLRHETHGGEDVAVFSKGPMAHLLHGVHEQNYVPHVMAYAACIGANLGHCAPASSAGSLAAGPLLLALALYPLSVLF

[26] = target: Intestinal-type alkaline phosphatase (Homo sapiens, UniProt P09923); assay: inhibition of human intestinal alkaline phosphatase – biochemical, dose response (AID 488876); format: functional
Sequence of Intestinal-type alkaline phosphatase (Homo sapiens, UniProt P09923) (P09923 whole entry): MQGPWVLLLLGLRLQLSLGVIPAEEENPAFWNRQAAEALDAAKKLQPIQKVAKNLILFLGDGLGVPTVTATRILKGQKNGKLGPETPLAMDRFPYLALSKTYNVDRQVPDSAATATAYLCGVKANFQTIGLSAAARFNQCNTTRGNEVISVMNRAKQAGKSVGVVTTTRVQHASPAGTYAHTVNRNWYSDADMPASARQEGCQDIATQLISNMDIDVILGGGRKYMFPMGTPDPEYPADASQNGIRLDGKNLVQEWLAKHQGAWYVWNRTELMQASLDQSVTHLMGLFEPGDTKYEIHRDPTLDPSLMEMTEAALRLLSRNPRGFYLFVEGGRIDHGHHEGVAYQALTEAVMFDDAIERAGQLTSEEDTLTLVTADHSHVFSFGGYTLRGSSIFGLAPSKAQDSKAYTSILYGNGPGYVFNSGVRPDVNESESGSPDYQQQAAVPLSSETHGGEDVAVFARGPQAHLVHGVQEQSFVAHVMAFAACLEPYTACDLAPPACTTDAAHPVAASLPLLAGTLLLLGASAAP

Sequence of Luciferin 4-monooxygenase (P08659 whole entry): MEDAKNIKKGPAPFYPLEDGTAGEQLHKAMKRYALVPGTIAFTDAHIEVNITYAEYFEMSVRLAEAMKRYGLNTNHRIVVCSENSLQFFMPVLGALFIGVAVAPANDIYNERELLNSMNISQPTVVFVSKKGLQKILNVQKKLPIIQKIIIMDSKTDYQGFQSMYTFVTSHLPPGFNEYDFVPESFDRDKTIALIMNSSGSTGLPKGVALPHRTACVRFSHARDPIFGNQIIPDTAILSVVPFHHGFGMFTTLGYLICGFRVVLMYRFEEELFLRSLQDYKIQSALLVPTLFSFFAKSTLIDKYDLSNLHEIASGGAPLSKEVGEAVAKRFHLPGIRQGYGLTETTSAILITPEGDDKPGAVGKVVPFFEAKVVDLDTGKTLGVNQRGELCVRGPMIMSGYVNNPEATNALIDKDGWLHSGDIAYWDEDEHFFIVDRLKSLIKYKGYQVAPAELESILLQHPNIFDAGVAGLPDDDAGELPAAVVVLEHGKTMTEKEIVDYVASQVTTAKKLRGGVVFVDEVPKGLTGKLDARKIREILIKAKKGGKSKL

Cc1cc(C)c2c(N)c(C(=O)Nc3ncc(C)s3)sc2n1
> 50 µM (not active): EC50 [2]
active: EC50 [1] < 0.2 µM | AC50 [3] 1.09 µM | AC50 [4] 2.92 µM | AC50 [5] 36.7 µM

CCOc1cc(CNCCO)cc(Br)c1OCc1ccccc1Cl
active: IC50 [6] 1.43 µM | IC50 [7] 1.56 µM | EC50 [8] 9.8 µM | EC50 [9] 9.13 µM | CC50 [10] 11.5 µM | CC50 [11] 14.1 µM | CC50 [12] 19.7 µM | IC50 [13] 18.4 µM | CC50 [14] 13.8 µM
inconclusive: AC50 [15] 28.2 µM

Nc1c(Cl)ncnc1NCc1cccnc1
active: AC50 [16] 5.63 µM

N=c1c2c(-c3ccccc3)c(-c3ccccc3)n(Cc3ccco3)c2ncn1Cc1ccco1
active: IC50 [6] 1.72 µM | IC50 [7] 2.49 µM | EC50 [17] 7.73 µM | EC50 [18] 0.68 µM | EC50 [19] 11.9 µM | EC50 [8] 1.16 µM | EC50 [20] 13.5 µM | EC50 [9] 0.891 µM | AC50 [21] 6.15 µM | EC50 [22] 8.76 µM

CC1=NN(c2ccc(C)cc2C)C(=O)C1C(c1ccccc1)C1C(=O)N(c2ccc(C)cc2C)N=C1C (centres undefined)
active: AC50 [16] 16.3 µM | AC50 [21] 0.523 µM | EC50 [22] 0.431 µM | IC50 [23] 48.8 µM

O=C(CCNS(=O)(=O)c1ccc2[nH]c(=O)oc2c1)Nc1ccccc1
active: IC50 [24] 2.4 µM | IC50 [25] 17.8 µM | IC50 [26] 26.9 µM

Cn1c(/N=C/c2cc(Cl)ccc2O)nc2ccccc21
active: AC50 [16] 10.4 µM

Source: ChEMBL document CHEMBL1201862, “PubChem BioAssay data set” (2004)
